Assay results as given in ChEMBL document CHEMBL3091282, “Synthesis and evaluation of stability of m3G-CAP analogues in serum-supplemented medium and cytosolic extract” (Bioorg Med Chem, 2013).

What was measured:
[1] = Half life in human HeLa cell cytosolic extract by RP-HPLC analysis; type: ADME, cell-based, Cytosol
[2] = Half life in DMEM by RP-HPLC analysis in presence of fetal bovine serum; type: ADME; conditions: cattle, DMEM with fetal bovine serum
[3] = Stability of the compound in DMEM assessed as compound remaining after 40 mins by RP-HPLC analysis in presence of fetal bovine serum; type: physicochemical; conditions: cattle, DMEM with fetal bovine serum; read-out: Stability

| SMILES | half-life [1] | half-life [2] | remaining at 40 min [3] |
| --- | --- | --- | --- |
| CO[C@@H]1[C@H](O)[C@@H](COP(=O)(O)OP(=O)([O-])OP(=O)(O)OC[C@H]2O[C@@H](n3c[n+](C)c4c(=O)[nH]c(N(C)C)nc43)[C@H](O)[C@@H]2O)O[C@H]1n1cnc2c(N)ncnc21 | 10 h | 0.217 h | 15% |
| CO[C@@H]1[C@H](O)[C@@H](COP(=O)([O-])OP(=O)(O)CP(=O)(O)OC[C@H]2O[C@@H](n3c[n+](C)c4c(=O)[nH]c(N(C)C)nc43)[C@H](O)[C@@H]2O)O[C@H]1n1cnc2c(N)ncnc21 | 10 h | 0.367 h | 35% |
| CO[C@@H]1[C@H](O)[C@@H](COP(=O)(O)CP(=O)(O)OP(=O)([O-])OC[C@H]2O[C@@H](n3c[n+](C)c4c(=O)[nH]c(N(C)C)nc43)[C@H](O)[C@@H]2O)O[C@H]1n1cnc2c(N)ncnc21 | 120 h | 0.583 h | 52% |
